Results as given in US20230406885A1, “CYCLIC PEPTIDES FOR TRAPPING INTERLEUKIN-1 BETA” (MERCK SHARP & DOHME LLC, priority 2022, published 2023).
pIC50: −log10 of the molar value. Where two headings read alike, the source gives them in different places. *1 amine or outer side, *2 acyl side, *3 side chain or, on linkers, in order; H or OH if unused. Where a SMILES comes first, the peptide text is derived from it. [ ]: non-standard residue; d: D form. Ala(piperidin-4-yl) = O=C([C@H](CC1CCN([*:3])CC1)N[*:1])[*:2]; Trp(βS-Me,4-F) = C[C@@H](c1c[nH]c2cccc(F)c12)[C@H](N)C(=O)O; Bip(4'-COOH) = N[C@@H](Cc1ccc(-c2ccc(C(=O)O)cc2)cc1)C(=O)O; Phe(4-COOH) = N[C@@H](Cc1ccc(C(=O)O)cc1)C(=O)O; Pro(4R-NH2) = N[C@H]1CN[C@H](C(=O)O)C1; AEF = NCCOc1ccc(C[C@H](N)C(=O)O)cc1; hTyr = N[C@@H](CCc1ccc(O)cc1)C(=O)O; hPhe = N[C@@H](CCc1ccccc1)C(=O)O; dNMeA = CN[C@H](C)C(=O)O; Dab = NCC[C@H](N)C(=O)O

Biological target: T1, Recombinant human IL-1β (Homo sapiens, UniProt P01584)
T1 construct: purchased BioLegend 579404
T1 sequence (P01584 117-269): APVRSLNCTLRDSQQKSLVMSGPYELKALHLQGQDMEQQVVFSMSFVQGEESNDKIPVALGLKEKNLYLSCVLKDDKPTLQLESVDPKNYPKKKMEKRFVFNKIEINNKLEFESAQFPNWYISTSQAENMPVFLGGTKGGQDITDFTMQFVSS
Experiment: IL-6 assay in MRC5 cells: inhibition of IL-1β induced IL-6 secretion (AlphaLISA)
Assay type: cell-based
Outline: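 IL-1β at 2×EC80 in seeding medium (EMEM, 0.025% BSA) preincubated 1 h at ambient temperature with compound, then 3000 MRC5 cells/well added and incubated overnight at 37 °C, 5% CO2. IL-6 in conditioned medium quantified by AlphaLISA; IC50 from 4-parameter logistic fit.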

[1] = inhibition of IL-1β induced IL-6 secretion in MRC5 cells, read-out: MRC5 IC50

CC(=O)NCCOc1ccc(C[C@@H]2NC(=O)[C@H](CCc3ccccc3)NC(=O)[C@@H](C)NC(=O)[C@H](CCN)NC(=O)[C@H](Cc3c[nH]c4ccccc34)NC(=O)[C@H](Cc3ccc(-c4ccc(C(=O)O)cc4)cc3)NC(=O)CNC(=O)[C@@H](C)N(C)C(=O)[C@H](CC(=O)O)NC(=O)[C@H]([C@@H](C)c3c[nH]c4cccc(F)c34)NC(=O)[C@@H]3C[C@@H](N)CN3C(=O)CNC(=O)[C@H](Cc3ccc(C(=O)O)cc3)NC(=O)[C@H](Cc3c[nH]c4ccccc34)NC2=O)cc1 [Example 163] (cyclo([AEF](Ac)W[Phe(4-COOH)]G[Pro(4R-NH2)][Trp(βS-Me,4-F)]D[dNMeA]G[Bip(4'-COOH)]W[Dab][dA][hPhe]))
pIC50 [1]: 9.81

CC(=O)NCCOc1ccc(C[C@@H]2NC(=O)[C@H](Cc3ccc(OCCN)cc3)NC(=O)[C@@H](C)NC(=O)[C@H](CC(C)C)NC(=O)[C@H](Cc3c[nH]c4ccccc34)NC(=O)[C@H](Cc3ccc(-c4ccc(C(=O)O)cc4)cc3)NC(=O)CNC(=O)[C@@H](C)N(C)C(=O)[C@H](CC(=O)O)NC(=O)[C@H]([C@@H](C)c3c[nH]c4cccc(F)c34)NC(=O)[C@@H]3C[C@@H](N)CN3C(=O)CNC(=O)[C@H](Cc3ccc(C(=O)O)cc3)NC(=O)[C@H](Cc3c[nH]c4ccccc34)NC2=O)cc1 [Example 164] (cyclo([AEF][AEF](Ac)W[Phe(4-COOH)]G[Pro(4R-NH2)][Trp(βS-Me,4-F)]D[dNMeA]G[Bip(4'-COOH)]WL[dA]))
pIC50: 9.34

CC(=O)NCCOc1ccc(C[C@@H]2NC(=O)[C@H](CC3CCNCC3)NC(=O)[C@@H](C)NC(=O)[C@H](CC(C)C)NC(=O)[C@H](Cc3c[nH]c4ccccc34)NC(=O)[C@H](Cc3ccc(-c4ccc(C(=O)O)cc4)cc3)NC(=O)CNC(=O)[C@@H](C)N(C)C(=O)[C@H](CC(=O)O)NC(=O)[C@H]([C@@H](C)c3c[nH]c4cccc(F)c34)NC(=O)[C@@H]3C[C@@H](N)CN3C(=O)CNC(=O)[C@H](Cc3ccc(C(=O)O)cc3)NC(=O)[C@H](Cc3c[nH]c4ccccc34)NC2=O)cc1 [Example 165] (cyclo([AEF](Ac)W[Phe(4-COOH)]G[Pro(4R-NH2)][Trp(βS-Me,4-F)]D[dNMeA]G[Bip(4'-COOH)]WL[dA][Ala(piperidin-4-yl)]))
pIC50 [1]: 9.11

CC(=O)NCCOc1ccc(C[C@@H]2NC(=O)[C@H](CCc3ccccc3)NC(=O)[C@@H](C)NC(=O)[C@H](CC(C)C)NC(=O)[C@H](Cc3c[nH]c4ccccc34)NC(=O)[C@H](Cc3ccc(-c4ccc(C(=O)O)cc4)cc3)NC(=O)CNC(=O)[C@@H](C)N(C)C(=O)[C@H](CC(=O)O)NC(=O)[C@H]([C@@H](C)c3c[nH]c4cccc(F)c34)NC(=O)[C@@H]3C[C@@H](N)CN3C(=O)CNC(=O)[C@H](Cc3ccc(C(=O)O)cc3)NC(=O)[C@H](Cc3c[nH]c4ccccc34)NC2=O)cc1 [Example 166] (cyclo([AEF](Ac)W[Phe(4-COOH)]G[Pro(4R-NH2)][Trp(βS-Me,4-F)]D[dNMeA]G[Bip(4'-COOH)]WL[dA][hPhe]))
pIC50 [1]: 9.83

CC(=O)NCCOc1ccc(C[C@@H]2NC(=O)[C@H](CCc3ccc(O)cc3)NC(=O)[C@@H](C)NC(=O)[C@H](CC(C)C)NC(=O)[C@H](Cc3c[nH]c4ccccc34)NC(=O)[C@H](Cc3ccc(-c4ccc(C(=O)O)cc4)cc3)NC(=O)CNC(=O)[C@@H](C)N(C)C(=O)[C@H](CC(=O)O)NC(=O)[C@H]([C@@H](C)c3c[nH]c4cccc(F)c34)NC(=O)[C@@H]3C[C@@H](N)CN3C(=O)CNC(=O)[C@H](Cc3ccc(C(=O)O)cc3)NC(=O)[C@H](Cc3c[nH]c4ccccc34)NC2=O)cc1 [Example 167] (cyclo([AEF](Ac)W[Phe(4-COOH)]G[Pro(4R-NH2)][Trp(βS-Me,4-F)]D[dNMeA]G[Bip(4'-COOH)]WL[dA][hTyr]))
pIC50 [1]: 9.87
